We go through twelve molecules from PubChem BioAssay (NCI).

Test systems include SN12C renal; 786-0 renal; NCI-H226 lung; HOP-62 NSCLC; SR leukemia; HOP-92 NSCLC; COLO 205 colon; SF-268 CNS; T-47D breast; RPMI-8226 leukemia.
Holding throughout (assay): DTP human tumour cell line panel, 48 h

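In this assay, cells in 96-well plates receive the compound at five concentrations for 48 hours. Endpoints are linearly interpolated between the surrounding concentrations. At the GI50, growth is halved. TGI: concentration producing complete growth inhibition.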

On to `NCCCOc1cc(Cl)ccc1NC(=O)c1cc2ccccc2cc1OCCCN`, for which the GI50 is 1.58 µM in the assay with SN12C renal; 1.62 µM in the assay with 786-0 renal; 1.22 µM in the assay with NCI-H226 lung; 1.26 µM with HOP-62 NSCLC; 1.72 µM in the assay on SR leukemia; 1.32 µM in the assay on HOP-92 NSCLC. The values for the GI50 with COLO 205 colon, in the assay with SF-268 CNS and in the assay on T-47D breast were 1.31 µM, 1.29 µM and 1.51 µM, respectively. The TGI came out at 3.23 µM in the assay on SN12C renal; 3.08 µM in the assay with 786-0 renal; 2.62 µM with NCI-H226 lung; 2.59 µM in the assay with HOP-62 NSCLC; 4.71 µM with SR leukemia; 2.85 µM with HOP-92 NSCLC. The TGI in the assay with COLO 205 colon stood at 2.79 µM; with SF-268 CNS, 2.63 µM; in the assay with T-47D breast, 3.2 µM.

Turning to `CNC(C)[C@H]1CCC2C3CC=C4C(=O)[C@@H](NC(=O)C=C(C)C)CC[C@]4(C)C3CC[C@@]21C` (stereo partly specified), the GI50 with SN12C renal is 2.46 µM; in the assay on 786-0 renal, 1.56 µM; in the assay on NCI-H226 lung it was 2.53 µM; in the assay with HOP-62 NSCLC, 1.7 µM; in the assay on RPMI-8226 leukemia, 1.13 µM; in the assay with HOP-92 NSCLC, 0.977 µM. The values for the GI50 in the assay with COLO 205 colon, with SF-268 CNS and in the assay on T-47D breast were 1.51 µM, 1.6 µM and 0.925 µM, respectively. In addition, the concentration for total growth inhibition (TGI) with SN12C renal is 10.5 µM; in the assay on 786-0 renal, 3.16 µM; in the assay on NCI-H226 lung, 14.1 µM; in the assay on HOP-62 NSCLC it was 3.63 µM; with RPMI-8226 leukemia, 5.27 µM; in the assay with HOP-92 NSCLC it was 10.3 µM. For the same molecule, the TGI in the assay with COLO 205 colon turned out to be 2.99 µM; in the assay on SF-268 CNS, 3.66 µM; in the assay on T-47D breast it was 5.05 µM.

For the molecule `C=C1C(=O)OC2C1CC(OC(C)=O)/C(C)=C/CCC1(C)OC21` (stereo unspecified), the total growth inhibition concentration (TGI) in the assay with SN12C renal, in the assay with 786-0 renal, in the assay on NCI-H226 lung, with RPMI-8226 leukemia, in the assay on HOP-92 NSCLC and in the assay on COLO 205 colon was above 100 µM throughout. The TGI with SF-268 CNS and with T-47D breast was above 100 µM throughout.

On to `CCOC(=O)c1sc(NC(=O)COc2cccc(/C=C3\CCc4cc(OC)ccc4C3=O)c2)nc1C`, for which the GI50 in the assay with SN12C renal was 3.89 µM; in the assay with 786-0 renal, 17 µM; in the assay with NCI-H226 lung, 28.3 µM; in the assay with HOP-62 NSCLC, 18.2 µM; with RPMI-8226 leukemia, 1.2 µM; with HOP-92 NSCLC it was 16.9 µM. For the same molecule, the GI50 in the assay with COLO 205 colon was 8.49 µM; with SF-268 CNS, 3.21 µM; with T-47D breast, 3.75 µM. Moreover, the TGI in the assay on SN12C renal is above 100 µM; in the assay with 786-0 renal, above 100 µM; in the assay with NCI-H226 lung it was above 100 µM; in the assay with HOP-62 NSCLC, 55.2 µM; in the assay with RPMI-8226 leukemia it was 3.38 µM; in the assay with HOP-92 NSCLC, 36.9 µM. In addition, the total growth inhibition concentration (TGI) was 43.4 µM with COLO 205 colon, 12.3 µM in the assay with SF-268 CNS and above 100 µM in the assay with T-47D breast.

Regarding `COc1ccc(/C=C/c2cnccn2)cc1OC`, the TGI with SN12C renal, in the assay on 786-0 renal, in the assay on NCI-H226 lung, in the assay on HOP-62 NSCLC, with HOP-92 NSCLC and in the assay with COLO 205 colon was above 10 µM throughout. For the same molecule, the total growth inhibition concentration (TGI) with SF-268 CNS and in the assay with T-47D breast was above 10 µM each time.

In the case of `O=C1CC2CCN(C(=O)c3ccccc3)CC2CCN1` (stereo unspecified), the TGI in the assay on SN12C renal, in the assay on 786-0 renal, in the assay on NCI-H226 lung, in the assay on HOP-62 NSCLC, in the assay with RPMI-8226 leukemia and with SR leukemia was above 100 µM each time. Besides, the TGI with HOP-92 NSCLC, in the assay on COLO 205 colon and in the assay with SF-268 CNS was above 100 µM in each case.

Take `O=[N+]([O-])c1ccc(Sc2c3ccccc3nc3ccccc23)cn1`: the TGI with SN12C renal is 43.2 µM; in the assay with 786-0 renal, 8.48 µM; in the assay with NCI-H226 lung, above 100 µM; with HOP-62 NSCLC, above 65.7 µM; in the assay on SR leukemia, above 100 µM; with HOP-92 NSCLC, 16.9 µM. Also, the TGI in the assay with COLO 205 colon turned out to be 10.4 µM; in the assay with SF-268 CNS, 52.4 µM; in the assay with T-47D breast it was 19.9 µM.

Consider `C[P+](C)(C)c1ccccc1`, for which the TGI in the assay with SN12C renal, with 786-0 renal, in the assay with NCI-H226 lung, with HOP-62 NSCLC, with RPMI-8226 leukemia and in the assay on SR leukemia was above 100 µM each time. The total growth inhibition concentration (TGI) with HOP-92 NSCLC, in the assay on COLO 205 colon and with SF-268 CNS was above 100 µM each time.

On to `Cc1c2c(C(N)=O)nccc2c(C)c2c1c1ccccc1n2Cc1ccccc1`, for which the TGI with SN12C renal amounted to 44.8 µM; with 786-0 renal it was 15.9 µM; in the assay on NCI-H226 lung it was 69.6 µM; in the assay with HOP-62 NSCLC, 19.3 µM; in the assay on RPMI-8226 leukemia it was 61.2 µM; with HOP-92 NSCLC, 25.1 µM. In addition, the TGI was 97.5 µM in the assay on SF-268 CNS and 79.5 µM in the assay on T-47D breast.

On to `COc1cc(/C=C/C(=O)C(C(=O)/C=C/c2ccc(OC(=O)CCNC34CC5CC(CC(C5)C3)C4)c(OC)c2)C(=O)CCNC23CC4CC(CC(C4)C2)C3)ccc1OC(=O)CCNC12CC3CC(CC(C3)C1)C2` (stereo unspecified), for which the GI50 in the assay with SN12C renal is 2.85 µM; with 786-0 renal, 4.19 µM; in the assay on NCI-H226 lung, 3.21 µM; in the assay on HOP-62 NSCLC, 9.12 µM; with RPMI-8226 leukemia, 2.12 µM; with HOP-92 NSCLC it was 4.75 µM. The GI50 was 4.27 µM in the assay on COLO 205 colon, 2.7 µM with SF-268 CNS and 3.69 µM in the assay on T-47D breast. Besides, the TGI is 9.48 µM in the assay with SN12C renal; above 100 µM in the assay on 786-0 renal; 12.5 µM in the assay on NCI-H226 lung; above 100 µM in the assay with HOP-62 NSCLC; 5.02 µM with RPMI-8226 leukemia; 31.4 µM in the assay on HOP-92 NSCLC. The concentration for total growth inhibition (TGI) in the assay with COLO 205 colon is 17.8 µM; in the assay with SF-268 CNS, 10.9 µM; in the assay on T-47D breast it was 28.9 µM.

For `COc1cc(/C=C/C(=O)Oc2ccccc2)ccc1C(=O)O/C=C/c1ccccc1`, the TGI in the assay with SN12C renal, in the assay on 786-0 renal, in the assay on NCI-H226 lung, in the assay on HOP-62 NSCLC, with RPMI-8226 leukemia and with HOP-92 NSCLC was above 100 µM throughout. For the same molecule, the concentration for total growth inhibition (TGI) in the assay with COLO 205 colon, in the assay with SF-268 CNS and in the assay with T-47D breast was above 100 µM in each case.

As to `Cc1ccc(C)c(N2C(=O)C(=O)C(c3nc4ccccc4o3)/C(=N\NC(=O)c3ccccc3O)C2=O)c1` (stereo unspecified), the total growth inhibition concentration (TGI) with SN12C renal was above 100 µM; in the assay on 786-0 renal, above 100 µM; in the assay with NCI-H226 lung, 88.6 µM; with HOP-62 NSCLC it was above 100 µM; with RPMI-8226 leukemia, 77.8 µM; in the assay on SR leukemia it was 76.2 µM. For the same molecule, the figures for the total growth inhibition concentration (TGI) in the assay on HOP-92 NSCLC, in the assay on COLO 205 colon and with SF-268 CNS were above 100 µM, 72.2 µM and above 100 µM, respectively.
